# Laboratory results reported in patent US10927375B1, “Compositions and methods to reduce beta-agonist-mediated tachyphylaxis” (University of South Florida, priority 2018, dated 2021).
# Entries after “also recorded” stand apart in the source; their conditions may differ.
# B1: let-7f inhibitor: competitive inhibitor (Dharmacon) that binds to let-7f; Cat. No. IH-30048-07, SEQ ID NO: 14 (nucleic acid)
# chain: UCAGAGUGAGGUAGUAGAUUGUAUAGUUGUGGGGUAGUGAUUUUACCCUGUUCAGGAGAUAACUAUACAAUCUAUUGCCUUCCCUGA
# modifications: commercial inhibitor, chemistry not given here
# Legend:
# [1] = tested on: let-7f miRNA expression in HASM cells; assay: let-7f miRNA expression in cultured HASM cells by quantitative RT-PCR; type: cell-based, human; settings: for change in let-7f miRNA expression after treatment with the agent: 18 h at 37° C., asthmatic and nonasthmatic HASM cells, ISO 30 μM, forskolin 10 mM, dibutyryl-cAMP 100 mM as printed
# ADRB2 mRNA = ADRB2 mRNA in D9 HASM cells by RT-PCR; settings: 18 h ISO
# Procedure: (§1) The immortalized HASM cell line denoted D9 hTERT was developed as described (22), and was grown in the same manner. […] In some experiments, pretreatment with 10 μM N-(2-[p-bromocinnamylamino]ethyl)-5-isoquinoline-sulfonamide (H89) occurred for 1 h prior to the aforementioned treatments.
# RT-PCR was performed using a LightCycler 96 system (Roche, Basel, Switzerland) and TaqMan polymerase (Applied Biosystems, Foster City, Calif., USA) as previously described (26, 27). The RT reactions utilized Oligo d(T)16 for ADRB2 and glyceraldehyde-3 phosphate dehydrogenase (control), and the primers included with the TaqMan MicroRNA assay (Applied Biosystems) for the reaction with let-7f and U6 snRNA (control). […] Quantitation of transcripts was made by the 22DCt method (28, 29).
# β2AR [2] = settings: incubating cells with dibutyryl-cAMP and forskolin (ref. 37); cited from earlier work
# β2AR [3] = settings: stably transfected HEK 293 cells greatly overexpressing β2ARs (ref. 40); cited from earlier work
# β2AR [4] = molecular target: β2AR (Homo sapiens, UniProt P07550); assay: β2AR protein expression / agonist-promoted down-regulation in HASM cells (Western blot, radioligand binding)
# Procedure: as §1
# HASM cells in 6-well plates were transfected using Lipofectamine 2000 (Thermo Fisher Scientific, Waltham, Mass., USA) as described in detail elsewhere (22, 23). Cells were in a final volume of 1.0 ml and the indicated constructs along with 10 ml of Lipofectamine 2000 were added to initiate the transfection. The constructs and final concentrations were: cAMP receptor element-binding protein [CREB (in pcDNA3, 4 μg/ml)], siCREB (40 nM of siGenome SmartPool; Dharmacon, Lafayette, Colo., USA), and to inhibit let-7f, a competitive inhibitor (Dharmacon) that binds to let-7f (24, 25) at a final concentration of 40 nM (24, 25). The cells were studied 48 h after transfection. […] Secondary antibody for chemoluminescence (Thermo Fisher Scientific) was at a titer of 1:10,000. ChemiDoc (Bio-Rad, Hercules, Calif., USA) was used to detect bands, which were quantitated using ImageJ (National Institutes of Health, Bethesda, Md., USA).
# Radioligand binding. Confluent cells in 10 cm dishes were washed 3 times with cold PBS followed by disruption with a cell scraper in buffer consisting of 5 mM Tris and 2 mM EDTA at 4° C. (pH 7.4). Crude membranes were collected by centrifugation at 30,000 g for 15 min at 4° C., and resuspended in assay buffer consisting of 75 mM Tris, 12 mM MgCl2, and 5 mM EDTA at 25° C. (pH 7.4). […] After incubation for 1.5 h at 25° C., bound radioligands were separated from free radioligands by rapid dilution and vacuum filtration with buffer containing 15 ml of 5 mM Tris and 2 mM EDTA at 25° C. (pH 7.4) over Whatman GF/C filters (GE Healthcare Bio-Sciences, Piscataway, N.J., USA) using a Brandel cell harvester (Brandel, Gaithersberg, Md., USA). Specific binding was divided by the added cell membrane protein and β2AR expression stated as femtomoles per milligram.
molecule,measurement,setting,value
O=S(=O)(NCCNCC=Cc1ccc(Br)cc1)c1cccc2cnccc12 [H89],effect of H89 on ISO-promoted increase in let-7f,"[1]; 10 μM H89 pretreatment 1 h, then ISO 18 h, asthmatic and non-asthmatic HASM cells",blocked; also recorded: inhibited
same,effect of H89 on forskolin-promoted increase in let-7f,"[1]; 10 μM H89 pretreatment 1 h, then forskolin 18 h, asthmatic and non-asthmatic HASM cells",blocked; also recorded: inhibited
same,effect of H89 on dibutyryl-cAMP-promoted increase in let-7f,"[1]; 10 μM H89 pretreatment, then dibutyryl-cAMP 18 h, HASM cells",blocked
"CC(C)NCC(O)c1ccc(O)c(O)c1 (centres unmarked) [ISO, isoproterenol]",change in let-7f miRNA expression after treatment with the agent,[1],increased
same,increase in let-7f miRNA expression,"[1]; 18 h exposure to ISO (30 μM), both asthmatic and non-asthmatic HASM cells",~3 fold
same,change in ADRB2 mRNA due to ISO exposure,ADRB2 mRNA,not altered; also recorded: not found to be changed
CCCC(=O)Nc1ncnc2c1ncn2[C@@H]1O[C@@H]2COP(=O)(O)O[C@H]2[C@H]1OC(=O)CCC [dibutyryl-cAMP],change in let-7f miRNA expression after treatment with the agent,[1],increased
same,β2AR down-regulation relative to β-agonists,β2AR [2],nearly the same extent
same,degree of β2AR down-regulation compared with that of ISO,β2AR [3],relatively small degree
B1,attenuation of agonist-promoted β2AR down-regulation,"β2AR [4]; let-7f or CREB silenced, chronic agonist",about 50%
same,effect on ISO-promoted β2AR down-regulation,"β2AR [4]; transfection 40 nM 48 h, then ISO 18 h",attenuates; also recorded: markedly attenuated
